This passage reports IC50 results from patent US10214519B2, “Phosphatidylinositol 3-kinase inhibitors” (Gilead Sciences, Inc., priority 2016, dated 2019).

pIC50: −log10 of the molar value.

This test has as its target PI3Kβ (Homo sapiens (Human), UniProt P42338). Briefly: PI3K isoform TR-FRET enzymatic assay (PI3Kβ). In kind it is biochemical. As to conditions: 2× Km ATP, 30 minutes at 25° C. In outline:
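Heterodimeric recombinant PI3Kβ was incubated with compound 30 minutes at 25° C. Product was detected by TR-FRET competition with 10 nM labeled PIP3 for 35 nM Eu-GRP-1 PH domain after EDTA stop. Data were normalized to 1 μM wortmannin and DMSO, and IC50 was taken from a four-parameter fit.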
(TR-FRET usually uses a lanthanide donor and a delayed reading to cut background.)

What is called pIC50 is the IC50 on a negative log10 scale, so that one unit is a factor of ten.

PI3Kβ, sequence (P42338 whole entry, the tested form may be a part, canonical isoform): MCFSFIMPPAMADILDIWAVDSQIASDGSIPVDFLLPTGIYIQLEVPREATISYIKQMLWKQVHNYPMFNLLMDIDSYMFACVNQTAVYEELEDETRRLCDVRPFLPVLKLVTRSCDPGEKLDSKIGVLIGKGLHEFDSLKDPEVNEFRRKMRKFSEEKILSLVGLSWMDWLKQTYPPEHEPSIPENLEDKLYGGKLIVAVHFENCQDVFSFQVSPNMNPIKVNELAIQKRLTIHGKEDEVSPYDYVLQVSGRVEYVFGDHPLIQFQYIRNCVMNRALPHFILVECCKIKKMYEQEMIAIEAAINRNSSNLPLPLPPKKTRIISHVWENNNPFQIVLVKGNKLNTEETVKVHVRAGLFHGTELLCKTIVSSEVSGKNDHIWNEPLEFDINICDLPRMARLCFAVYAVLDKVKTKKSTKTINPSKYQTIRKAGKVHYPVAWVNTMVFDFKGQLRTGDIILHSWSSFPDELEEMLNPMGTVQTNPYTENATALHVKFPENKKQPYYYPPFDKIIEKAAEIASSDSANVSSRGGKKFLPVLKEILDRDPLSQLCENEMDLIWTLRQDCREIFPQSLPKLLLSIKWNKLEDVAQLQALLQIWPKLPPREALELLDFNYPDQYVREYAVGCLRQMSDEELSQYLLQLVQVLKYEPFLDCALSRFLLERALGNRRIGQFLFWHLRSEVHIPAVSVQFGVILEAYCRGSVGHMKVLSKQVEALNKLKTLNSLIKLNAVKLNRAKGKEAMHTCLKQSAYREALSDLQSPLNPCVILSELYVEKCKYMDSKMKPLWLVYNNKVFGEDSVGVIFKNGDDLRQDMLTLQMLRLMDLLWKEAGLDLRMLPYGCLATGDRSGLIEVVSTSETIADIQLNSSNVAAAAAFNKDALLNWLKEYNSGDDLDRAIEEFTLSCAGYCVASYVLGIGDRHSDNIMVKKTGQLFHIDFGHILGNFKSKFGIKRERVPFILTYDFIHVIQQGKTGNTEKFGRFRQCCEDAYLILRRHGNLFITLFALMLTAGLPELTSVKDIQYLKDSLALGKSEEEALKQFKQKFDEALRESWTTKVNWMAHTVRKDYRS
PI3Kβ, sequence (P27986 whole entry partner, the tested form may be a part, canonical isoform): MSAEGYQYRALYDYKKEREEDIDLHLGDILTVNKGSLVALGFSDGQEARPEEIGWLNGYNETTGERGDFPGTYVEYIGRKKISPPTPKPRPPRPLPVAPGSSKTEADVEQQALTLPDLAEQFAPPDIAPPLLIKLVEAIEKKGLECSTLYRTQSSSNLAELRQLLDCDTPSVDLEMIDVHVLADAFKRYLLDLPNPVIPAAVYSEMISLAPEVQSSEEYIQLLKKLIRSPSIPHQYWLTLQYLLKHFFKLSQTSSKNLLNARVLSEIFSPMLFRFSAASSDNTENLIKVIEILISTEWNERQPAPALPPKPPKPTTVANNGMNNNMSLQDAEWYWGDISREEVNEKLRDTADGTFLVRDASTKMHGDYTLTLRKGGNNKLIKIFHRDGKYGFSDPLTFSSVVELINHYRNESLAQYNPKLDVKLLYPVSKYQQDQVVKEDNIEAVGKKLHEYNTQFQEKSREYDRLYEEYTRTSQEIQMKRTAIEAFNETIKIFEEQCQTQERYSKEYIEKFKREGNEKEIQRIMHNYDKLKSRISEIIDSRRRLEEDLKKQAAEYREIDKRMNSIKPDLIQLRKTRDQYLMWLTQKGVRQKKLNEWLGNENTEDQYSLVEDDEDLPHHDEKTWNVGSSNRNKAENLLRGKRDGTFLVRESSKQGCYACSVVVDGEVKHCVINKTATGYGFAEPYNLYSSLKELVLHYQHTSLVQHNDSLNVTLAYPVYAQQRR

Consider `Cc1nc2c(-c3nnc[nH]3)cc(N3CCOCC3)cc2n1-c1ccnc2c(F)ccc(Cl)c12` (atropisomer, axis not shown) [Compound 345, 4-[3-(5-chloro-8-fluoroquinolin-4-yl)-2-methyl-7-(4H-1,2,4-triazol-3-yl)benzimidazol-5-yl]morpholine], for which the pIC50 is 5.35.
Then `Clc1ncc(-c2cc(N3CCOCC3)cc3c2ncn3-c2ccnc3c(Cl)cccc23)[nH]1` [Example 285, 4-[7-(2-chloro-1H-imidazol-5-yl)-3-(8-chloroquinolin-4-yl)benzimidazol-5-yl]morpholine], with 8.40.
For `Cc1nc2c(-c3nnc(Cl)[nH]3)cc(N3CCOCC3)cc2n1-c1ccnc2c(Cl)c(F)ccc12` [Example 171, 4-(4-(5-chloro-4H-1,2,4-triazol-3-yl)-1-(8-chloro-7-fluoroquinolin-4-yl)-2-methyl-1H-benzo[d]imidazol-6-yl)morpholine] the value was 7.00; for `CCc1nc2ccccc2c(-n2cnc3c(-c4nnc[nH]4)cc(N4CCOCC4)cc32)c1C` [Example 72, 4-[3-(2-ethyl-3-methylquinolin-4-yl)-7-(4H-1,2,4-triazol-3-yl)benzimidazol-5-yl]morpholine], 7.60; for `Cc1nc2c(-c3nccs3)cc(N3CCOCC3)cc2n1-c1ccnc2c(Cl)cccc12` [Example 244, 4-[3-(8-chloroquinolin-4-yl)-2-methyl-7-(1,3-thiazol-2-yl)benzimidazol-5-yl]morpholine], 8.05.
`Cc1nnc(-c2cc(N3CCOCC3)cc3c2nc(C2CC2)n3-c2ccnc3c(Cl)cccc23)[nH]1` [Example 47, 4-(1-(8-chloroquinolin-4-yl)-2-cyclopropyl-4-(5-methyl-4H-1,2,4-triazol-3-yl)-1H-benzo[d]imidazol-6-yl)morpholine] gave a pIC50 of 7.74. Compared with the last compound, the pIC50 is 0.31 log units lower.
On to `Cc1nc2c(-c3ccsc3)cc(N3CCOCC3)cc2n1-c1ccnc2c(Cl)cccc12` [Example 272, 4-[3-(8-chloroquinolin-4-yl)-2-methyl-7-thiophen-3-ylbenzimidazol-5-yl]morpholine], for which the pIC50 is 7.19.
For `Fc1ccc(F)c2c(-n3cnc4c(-c5nnc[nH]5)cc(N5CCOCC5)cc43)ccnc12` [Example 28, 4-(1-(5,8-difluoroquinolin-4-yl)-4-(4H-1,2,4-triazol-3-yl)-1H-benzo[d]imidazol-6-yl)morpholine] the value was 8.52; for `Cc1nc2c(-c3nnc(C(C)C)[nH]3)cc(N3CCOCC3)cc2n1-c1ccnc2c(Cl)cccc12` [Example 138, 4-[3-(8-chloroquinolin-4-yl)-2-methyl-7-(5-propan-2-yl-4H-1,2,4-triazol-3-yl)benzimidazol-5-yl]morpholine], 6.85; for `Fc1ccc(F)c2c(-n3c(C4CC4)nc4c(-c5cnc(Cl)[nH]5)cc(N5CCOCC5)cc43)ccnc12` [Example 286, 4-[7-(2-chloro-1H-imidazol-5-yl)-2-cyclopropyl-3-(5,8-difluoroquinolin-4-yl)benzimidazol-5-yl]morpholine], 7.85.
Then `Fc1c(N2CCOCC2)cc(-c2nnc[nH]2)c2ncn(-c3ccnc4c(Cl)cccc34)c12` [Example 149, 4-(1-(8-chloroquinolin-4-yl)-7-fluoro-4-(4H-1,2,4-triazol-3-yl)-1H-benzo[d]imidazol-6-yl)morpholine], with 7.00; and `Cc1csc(-c2cc(N3CCOCC3)cc3c2nc(C)n3-c2ccnc3c(Cl)cccc23)n1` [Example 205, 4-[3-(8-chloroquinolin-4-yl)-2-methyl-7-(4-methyl-1,3-thiazol-2-yl)benzimidazol-5-yl]morpholine], with 7.92; and `CCCc1nc2c(-c3ccn[nH]3)cc(N3CCOCC3)cc2n1-c1ccnc2c(F)ccc(F)c12` [Example 389], with 7.80.
Then `Cc1nc2c(-c3ccncc3)cc(N3CCOCC3)cc2n1-c1ccnc2c(Cl)cccc12` [Example 319, 4-[3-(8-chloroquinolin-4-yl)-2-methyl-7-pyridin-4-ylbenzimidazol-5-yl]morpholine], with 5.07; and `Fc1ccc(Cl)c2nccc(-n3c(C4CC4)nc4c(-c5nccs5)cc(N5CCOCC5)cc43)c12` [Example 247, 4-(1-(8-chloro-5-fluoroquinolin-4-yl)-2-cyclopropyl-4-(thiazol-2-yl)-1H-benzo[d]imidazol-6-yl)morpholine], with 7.92; and `Cc1cc(-c2cc(N3CCOCC3)cc3c2nc(C)n3-c2ccnc3c(Cl)cccc23)n[nH]1` [Example 268, 4-[3-(8-chloroquinolin-4-yl)-2-methyl-7-(5-methyl-1H-pyrazol-3-yl)benzimidazol-5-yl]morpholine], with 6.50.
Consider `Fc1ccc2c(-n3c(C4CC4)nc4c(-c5cnc(Cl)[nH]5)cc(N5CCOCC5)cc43)ccnc2c1Cl` [Example 296, 4-[3-(8-chloro-7-fluoroquinolin-4-yl)-7-(2-chloro-1H-imidazol-5-yl)-2-cyclopropylbenzimidazol-5-yl]morpholine], for which the pIC50 is 7.77.
For `Fc1ccc(Cl)c2nccc(-n3c(C4CC4)nc4c(-c5cnc(Cl)[nH]5)cc(N5CCOCC5)cc43)c12` [Example 307, 4-[3-(8-chloro-5-fluoroquinolin-4-yl)-7-(2-chloro-1H-imidazol-5-yl)-2-cyclopropylbenzimidazol-5-yl]morpholine], the pIC50 was 8.10.
Then `Clc1cccc2c(-n3c(-c4cnsc4)nc4c(-c5nnc[nH]5)cc(N5CCOCC5)cc43)ccnc12` [Example 118, 4-[3-(8-chloroquinolin-4-yl)-2-(1,2-thiazol-4-yl)-7-(4H-1,2,4-triazol-3-yl)benzimidazol-5-yl]morpholine], with 7.28; and `Cn1cc(-c2nc3c(-c4nnc[nH]4)cc(N4CCOCC4)cc3n2-c2ccnc3c(Cl)cccc23)cn1` [Example 121, 4-[3-(8-chloroquinolin-4-yl)-2-(1-methylpyrazol-4-yl)-7-(4H-1,2,4-triazol-3-yl)benzimidazol-5-yl]morpholine], with 7.36; and `Cc1cc(-n2c(C)nc3c(-c4nc(C)n[nH]4)cc(N4CCOCC4)cc32)c2ccccc2n1` [Example 73, 4-[2-methyl-3-(2-methylquinolin-4-yl)-7-(3-methyl-1H-1,2,4-triazol-5-yl)benzimidazol-5-yl]morpholine], with 7.11.
Compound `Cc1nnc(-c2cc(N3CCOCC3)cc3c2nc(CC(C)C)n3-c2ccnc3c(Cl)cccc23)[nH]1` [Example 2, 4-(1-(8-chloroquinolin-4-yl)-2-isobutyl-4-(5-methyl-4H-1,2,4-triazol-3-yl)-1H-benzo[d]imidazol-6-yl)morpholine] had a pIC50 of 7.62.
With `CCc1nc2c(-c3cnc(Cl)[nH]3)cc(N3CCOCC3)cc2n1-c1ccnc2c(Cl)cccc12` [Example 279, 4-[7-(2-chloro-1H-imidazol-5-yl)-3-(8-chloroquinolin-4-yl)-2-ethylbenzimidazol-5-yl]morpholine], the pIC50 was 8.00.
For `Cc1nc2c(-c3cnc[nH]3)cc(N3CCOCC3)cc2n1-c1ccnc2c(Cl)cccc12` [Example 266, 4-[3-(8-chloroquinolin-4-yl)-7-(1H-imidazol-5-yl)-2-methylbenzimidazol-5-yl]morpholine] the value was 7.96.
For `CCc1nc2c(-c3ncco3)cc(N3CCOCC3)cc2n1-c1ccnc2c(Cl)cccc12` [Example 226, 4-[3-(8-chloroquinolin4-yl)-2-ethyl-7-(1,3-oxazol-2-yl)benzimidazol-5-yl]morpholine] the value was 8.30; for `Cc1nc2c(-c3cn[nH]c3)cc(N3CCOCC3)cc2n1-c1ccnc2c(Cl)cccc12` [Example 183, 4-(1-(8-chloroquinolin-4-yl)-2-methyl-4-(1H-pyrazol-4-yl)-1H-benzo[d]imidazol-6-yl)morpholine], 6.77; for `Cc1nc2c(-c3ccnnc3)cc(N3CCOCC3)cc2n1-c1ccnc2c(Cl)cccc12` [Example 314, 4-(1-(8-chloroquinolin-4-yl)-2-methyl-4-(pyridazin-4-yl)-1H-benzo[d]imidazol-6-yl)morpholine], 5.11.
In the case of `Cc1nnc(-c2cc(N3CCOCC3)cc3c2nc(C)n3-c2ccnc3c(F)cccc23)[nH]1` [Example 130, 4-[3-(8-fluoroquinolin-4-yl)-2-methyl-7-(5-methyl-4H-1,2,4-triazol-3-yl)benzimidazol-5-yl]morpholine], the pIC50 is 7.06.
`CCc1nc2c(-c3nnc[nH]3)cc(N3CCOCC3)cc2n1-c1ccnc2c(F)ccc(F)c12` [Example 125, 4-[3-(5,8-difluoroquinolin-4-yl)-2-ethyl-7-(4H-1,2,4-triazol-3-yl)benzimidazol-5-yl]morpholine] had a pIC50 of 7.80. This pIC50 lies 0.74 log units higher than the previous one.
Then `CCCc1nc2c(-c3cn[nH]c3)cc(N3CCOCC3)cc2n1-c1ccnc2c(F)ccc(F)c12` [Example 388, 4-(1-(5,8-difluoroquinolin-4-yl)-2-propyl-4-(1H-pyrazol-4-yl)-1H-benzo[d]imidazol-6-yl)morpholine], with 5.96.
Then `Fc1ccc2c(-n3c(C4CC4)nc4c(-c5nnc[nH]5)cc(N5CCOCC5)cc43)ccnc2c1F` [Example 143, 4-[2-cyclopropyl-3-(7,8-difluoroquinolin-4-yl)-7-(4H-1,2,4-triazol-3-yl)benzimidazol-5-yl]morpholine], with 7.08.
For the compound `CCc1nc2c(-c3nc(C)cs3)cc(N3CCOCC3)cc2n1-c1ccnc2c(F)cccc12` [Example 232, 4-[2-ethyl-3-(8-fluoroquinolin-4-yl)-7-(4-methyl-1,3-thiazol-2-yl)benzimidazol-5-yl]morpholine], the pIC50 is 7.25. This pIC50 and that of the compound before are within 0.2 log units of each other.
On to `CCc1nc2c(-c3cnc[nH]3)cc(N3CCOCC3)cc2n1-c1cc(C)nc2c(Cl)ccc(Cl)c12` [Example 334, 4-[3-(5,8-dichloro-2-methylquinolin-4-yl)-2-ethyl-7-(1H-imidazol-5-yl)benzimidazol-5-yl]morpholine], for which the pIC50 is 7.62. This pIC50 lies 0.37 log units higher than the previous one.
With `CCCc1nc2c(-c3ncco3)cc(N3CCOCC3)cc2n1-c1ccnc2c(Cl)cccc12` [Example 227, 4-[3-(8-chloroquinolin-4-yl)-7-(1,3-oxazol-2-yl)-2-propylbenzimidazol-5-yl]morpholine], the pIC50 is 8.00. This pIC50 lies 0.38 log units higher than the previous one.
